These results are taken from the supplement of paper PMC10307832.

What all share (assay): relative viability (nuclei count vs DMSO), 5 days (fraction); higher = more cells survive
Compound in the experiment “VE-821 + Pictilisib”: CS(=O)(=O)c1ccc(-c2cnc(N)c(C(=O)Nc3ccccc3)n2)cc1 [VE-821] + CS(=O)(=O)N1CCN(Cc2cc3nc(-c4cccc5[nH]ncc45)nc(N4CCOCC4)c3s2)CC1 [Pictilisib] (partner 1 µM)
In outline:
(§1)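 Dosing by pin tool came one day after lung cancer cell lines were seeded in 1536-well plates, using either one drug or a fixed anchor-drug dose plus five library-drug doses (not always all listed) in √10 steps. After 5 days, nuclei were counted on 4× images. Relative viability is treated-well nuclei count divided by vehicle-well nuclei count, and values are medians of duplicate plates.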

Compound in the experiment “Vismodegib + Palbociclib”: CS(=O)(=O)c1ccc(C(=O)Nc2ccc(Cl)c(-c3ccccn3)c2)c(Cl)c1 [Vismodegib] + CC(=O)c1c(C)c2cnc(Nc3ccc(N4CCNCC4)cn3)nc2n(C2CCCC2)c1=O [Palbociclib] (partner 0.5 µM)
An outline of the steps: as §1

Compound in the experiment “Vismodegib + Decitabine”: CS(=O)(=O)c1ccc(C(=O)Nc2ccc(Cl)c(-c3ccccn3)c2)c(Cl)c1 [Vismodegib] + Nc1ncn([C@H]2C[C@H](O)[C@@H](CO)O2)c(=O)n1 [Decitabine] (partner 2 µM)
In outline:
as §1

Compound in the experiment “Ruxolitinib + Pictilisib”: N#CC[C@H](C1CCCC1)n1cc(-c2ncnc3[nH]ccc23)cn1 [Ruxolitinib] + CS(=O)(=O)N1CCN(Cc2cc3nc(-c4cccc5[nH]ncc45)nc(N4CCOCC4)c3s2)CC1 [Pictilisib] (partner 1 µM)
An outline of the steps:
as §1

For UMC-11, the relative viability with VE-821 + Pictilisib (first compound 0.08 µM) worked out at 0.933; with VE-821 + Pictilisib (first compound 0.253 µM), 0.781; with VE-821 + Pictilisib (first compound 0.8 µM) it was 0.613; with VE-821 + Pictilisib (first compound 2.53 µM), 0.84; with VE-821 + Pictilisib (first compound 8 µM) it was 0.4; with Vismodegib + Palbociclib (first compound 0.08 µM), 0.343. The relative viability in the experiment with Vismodegib + Palbociclib (first compound 0.253 µM) came to 0.346; in the experiment with Vismodegib + Palbociclib (first compound 0.8 µM) it was 0.298; with Vismodegib + Palbociclib (first compound 2.53 µM), 0.351; in the experiment with Vismodegib + Palbociclib (first compound 8 µM) it was 0.344; in the experiment with Vismodegib + Decitabine (first compound 0.08 µM), 0.623; with Vismodegib + Decitabine (first compound 0.253 µM) it was 0.579. In addition, the relative viability worked out at 0.489 in the experiment with Vismodegib + Decitabine (first compound 0.8 µM); 0.457 in the experiment with Vismodegib + Decitabine (first compound 2.53 µM); 0.53 in the experiment with Vismodegib + Decitabine (first compound 8 µM); 0.738 with Ruxolitinib + Pictilisib (first compound 0.08 µM); 0.853 with Ruxolitinib + Pictilisib (first compound 0.253 µM); 1.05 with Ruxolitinib + Pictilisib (first compound 0.8 µM). Moreover, the relative viability amounted to 0.958 with Ruxolitinib + Pictilisib (first compound 2.53 µM) and 0.927 with Ruxolitinib + Pictilisib (first compound 8 µM).
